{"source": "patent EP4186382A1", "about": "“MESH MATERIALS FOR CONTROLLED RELEASE OF ANTIVIRALS, METHOD AND USE” (Universidade Federal de Minas Gerais, priority 2020, dated 2022)", "key": {"[1]": {"system": "Coronavirus (MHV-3 Strain)", "assay_type": "cell-based, Coronavirus MHV-3 Strain genus Betacoronavirus"}, "[2]": {"assay": "Solubility in water when preparing calibration standards", "assay_type": "physicochemical", "description": "The calibration curve used the following standards: Standard #1 - 99.5% chlorhexidine (CAS 55-56-1) from Sigma-Aldrich, Standard #2 - 20% solution of chlorhexidine digluconate in solution (CAS 18472-51-0). Samples with both standards were prepared in deionized water. […] With Standard #2 it was possible to obtain a good reproducibility of the areas; therefore, it was decided to perform the calibration curve with standard #2."}}, "note": "Values joined by “and” are separate entries in the source; they are usually repeats but may differ in a detail not shown here. Equal values may be shown once. Read-outs that look alike come from different tables or passages of the source."}
{"compound": "N=C(NCCCCCCNC(=N)NC(=N)Nc1ccc(Cl)cc1)NC(=N)Nc1ccc(Cl)cc1", "note": "[5% Chlorhexidine, 1,1'-hexamethylene-bis(5-(p-chlorophenyl)-biguanide)]", "values": [{"measurement": "time after which activity was lost", "setting": "[1]; concentration of 5%", "result": "≤ 10", "unit": "min"}, {"measurement": "Infectivity Reduction (Virus Titer 10^8/mL)", "setting": "[1]; contact time 1 minute", "result": "10^4"}, {"measurement": "Coronavirus (MHV-3 Strain) inactivation", "setting": "[1]; contact time 1 minute, listed as Chlorhexidine 5.0%", "result": 99.99, "unit": "%"}, {"measurement": "Infectivity Reduction (Virus Titer 10^8/mL)", "setting": "[1]; contact time 5 minutes", "result": "10^4"}, {"measurement": "Coronavirus (MHV-3 Strain) inactivation", "setting": "[1]; contact time 5 minutes, listed as Chlorhexidine 5.0%", "result": 99.99, "unit": "%"}, {"measurement": "Coronavirus (MHV-3 Strain) inactivation", "setting": "[1]; contact time 10 minutes", "result": "99.9% and 99.99%"}, {"measurement": "Infectivity Reduction (Virus Titer 10^8/mL)", "setting": "[1]; contact time 10 minutes", "result": "10^5"}, {"measurement": "Coronavirus (MHV-3 Strain) inactivation", "setting": "[1]; contact time 10 minutes, listed as Chlorhexidine 5.0%", "result": 99.9, "unit": "%"}, {"measurement": "Coronavirus (MHV-3 Strain) inactivation", "setting": "[1]; contact time 1 hour", "result": "Not effective"}, {"measurement": "Coronavirus (MHV-3 Strain) inactivation", "setting": "[1]; contact time 4 hours", "result": "Not effective"}, {"measurement": "Coronavirus (MHV-3 Strain) inactivation", "setting": "[1]; contact time Immediate", "result": "Not Effective"}]}
{"compound": "[H]/N=C(\\N/C(=N/[H])NCCCCCCNC(=N)NC(=N)Nc1ccc(Cl)cc1)Nc1ccc(Cl)cc1", "note": "[Chlorhexidine, 1,1'-hexamethylene-bis(5-(p-chlorophenyl)-biguanide)]", "values": [{"measurement": "solubility in water", "setting": "[2]", "result": "very low solubility in water"}]}
{"compound": "N=C(NCCCCCCNC(=N)NC(=N)Nc1ccc(Cl)cc1)NC(=N)Nc1ccc(Cl)cc1.O=C(O)[C@H](O)[C@@H](O)[C@H](O)[C@H](O)CO.O=C(O)[C@H](O)[C@@H](O)[C@H](O)[C@H](O)CO", "note": "[chlorhexidine digluconate]", "values": [{"measurement": "solubility in water", "setting": "[2]; deionized water", "result": "no solubility problems"}]}
